This passage reports Ki results from US5861393A, “Antithrombotic amidinophenylalanine and amidinopyridylalanine derivatives” (Pfizer Inc., priority 1993, dated 1999).

Where a name gives a salt, the structure may show the parent alone.

Common to all, as to format: biochemical
The target in one experiment is T1, bovine plasma plasmin (Bos taurus, UniProt P06868).
T1 construct: from tissue; host or cells: bovine plasma
Kind of experiment: Chromogenic assay, inhibition of plasmin. Conditions: in vitro; substrate Chromozym PL; pH 8.0; 30 minutes at 30° C. How it is done: (§1) The inhibition of thrombin, trypsin, plasmin or factor Xa is measured in 96 well plate chromogenic assays. The percentage inhibition and IC50 are calculated from triplicate samples of an 8 concentration dose-response curve. From the substrate Km and IC50, the Ki for each inhibitor is calculated. All assays are carried out in a total incubation of 200 μl of 50 mM HEPES and 150 mM NaCl at pH 8.0, and all compound dilutions are preincubated with enzyme at room temperature for 15 minutes prior to addition of substrate. After 30 minutes incubation at 30° C., the O.D. is measured at […] in a 96 well plate reader. Thrombin activity is measured using bovine thrombin and S2238 (H-D-Phe-Pip-Arg-pNA), bovine pancreatic trypsin is assayed with S2222 (Benz-Isoleu-Glu-Gly-Arg-pNA), bovine plasma plasmin is assayed with Chromozym PL (Tosyl-Gly-Pro-Lys-pNA)and bovine factor Xa is assayed in 50 mM Tris,150mM NaCl,pH 7.5 buffer with S2222.

Experiment [1] deals with T2, bovine pancreatic trypsin (Bos taurus, UniProt P00760).
T2 construct: from tissue; host or cells: bovine pancreas
T2 sequence (P00760 24-246): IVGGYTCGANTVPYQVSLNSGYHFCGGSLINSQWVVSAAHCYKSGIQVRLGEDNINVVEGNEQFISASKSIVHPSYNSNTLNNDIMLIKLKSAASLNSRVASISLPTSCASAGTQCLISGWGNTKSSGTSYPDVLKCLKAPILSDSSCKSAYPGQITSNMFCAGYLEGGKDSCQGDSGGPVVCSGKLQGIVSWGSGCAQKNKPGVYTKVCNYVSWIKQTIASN
Description: Chromogenic assay, inhibition of trypsin. Conditions: in vitro; substrate S2222; pH 8.0; 30 minutes at 30° C. Here is the method:
as §1

For another experiment, the target named is bovine thrombin (Bos taurus, UniProt P00735). Description: Chromogenic assay, inhibition of thrombin. The following applies: in vitro; substrate S2238; pH 8.0; 30 minutes at 30° C. Here is the method:
as §1

T1 sequence (P06868 584-812 limits assumed): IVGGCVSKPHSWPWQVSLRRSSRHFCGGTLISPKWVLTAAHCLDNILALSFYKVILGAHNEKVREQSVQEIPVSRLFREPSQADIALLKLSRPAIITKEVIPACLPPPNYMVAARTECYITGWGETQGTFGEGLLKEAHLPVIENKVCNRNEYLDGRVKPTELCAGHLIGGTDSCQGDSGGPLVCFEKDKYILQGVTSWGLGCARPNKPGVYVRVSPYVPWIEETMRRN
T1 sequence (P06868 105-583 partner limits assumed): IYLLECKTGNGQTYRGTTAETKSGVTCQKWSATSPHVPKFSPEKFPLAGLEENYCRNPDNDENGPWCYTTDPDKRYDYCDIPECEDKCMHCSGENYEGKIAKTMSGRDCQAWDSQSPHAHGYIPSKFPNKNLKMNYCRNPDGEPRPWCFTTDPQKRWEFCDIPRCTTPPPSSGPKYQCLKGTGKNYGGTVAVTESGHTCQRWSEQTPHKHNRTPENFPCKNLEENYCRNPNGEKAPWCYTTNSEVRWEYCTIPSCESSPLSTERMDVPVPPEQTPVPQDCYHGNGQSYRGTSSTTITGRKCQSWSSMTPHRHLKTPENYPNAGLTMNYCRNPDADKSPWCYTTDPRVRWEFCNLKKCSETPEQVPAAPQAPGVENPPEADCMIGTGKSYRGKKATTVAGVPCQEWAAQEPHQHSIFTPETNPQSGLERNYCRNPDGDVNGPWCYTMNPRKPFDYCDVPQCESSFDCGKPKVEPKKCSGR

`CC1=CCN(C(=O)[C@H](Cc2cccc(C(=N)N)c2)NS(=O)(=O)c2ccc3c(c2)CCN(C)C3)[C@@H](C(=O)O)C1` [Example 2, 4-Methyl-1-[N-(2-methyl-1,2,3,4-tetrahydroisoquinoline-6-sulphonyl)-3-amidino-(S)-phenylalanyl]-1,2,3,6-tetrahydropyridine-2(R)-carboxylic acid dihydrochloride]: the results for the inhibition constant (Ki) (at bovine plasma plasmin; in experiment [1]; on bovine thrombin) were 6100 nM, 57 nM and 3.9 nM, respectively.
The like results for `CC1=CCN(C(=O)[C@H](Cc2cccc(C(=N)N)c2)NS(=O)(=O)c2ccc3c(c2)C(CC(=O)N(C)C)N(C)CC3)[C@@H](C(=O)O)C1` (stereo partly drawn) [Example 5, 1-{N-[1(R,S)-(N,N-Dimethylcarbamoylmethyl)-2-methyl-1,2,3,4-tetrahydroisoquinoline-7-sulphonyl]-3-amidino-(S)-phenylalanyl}-4-methyl-1 2,3,6-tetrahydropyridine-2(R-carboxylic acid dihydrochloride] were, in that order, 6000 nM, 54 nM and 2.2 nM.
As for `CC1=CCN(C(=O)[C@H](Cc2cccc(C(=N)N)c2)NS(=O)(=O)c2ccc3c(c2)CCN(C(C)C)CC3)[C@@H](C(=O)O)C1` [Example 8, 4-Methyl-1-{N-[3-(2-propyl]-2,3,4,5-tetrahydro-1H-3-benzazepine-7-sulphonyl-3-amidino-(S)-phenylalanyl}-1,2,3,6-tetrahydropyridine-2(R)-carboxylic acid dihydrochloride], the Ki at bovine plasma plasmin stood at 1800 nM; in experiment [1] it was 40 nM; on bovine thrombin it was 6.4 nM.
The like results for `CC1=CCN(C(=O)[C@H](Cc2cccc(C(=N)N)c2)NS(=O)(=O)c2ccc3c(c2)CN(Cc2ccccc2)CC3)[C@@H](C(=O)O)C1` [Example 10, 1-[N-(2-Benzyl-1,2,3,4-tetrahydroisoquinoline-7-sulphonyl)-3-amidino-(S)-phenylalanyl]-4-methyl-1,2,3,6-tetrahydropyridine-2(R)-carboxylic acid dihydrochloride] were, in that order, 180 nM, 48 nM and 1 nM.
For `C[C@@H]1CCN(C(=O)C(Cc2cccc(C(=N)N)c2)NS(=O)(=O)c2ccc3c(c2)CN(C)CC3)[C@@H](C(=O)O)C1` (stereo partly drawn) [Example 13, 4(R)-Methyl-1-[N-(2-methyl-1,2,3,4-tetrahydroisoquinoline-7-sulphonyl)-3-amidino-(R,S)-phenylalanyl]piperidine-2(R)-carboxylic acid dihydrochloride], the inhibitory constant (Ki) stood at 12000 nM at bovine plasma plasmin, 49 nM in experiment [1] and 4 nM at bovine thrombin.
The like results for `CC1=CCN(C(=O)[C@H](Cc2cccc(C(=N)N)c2)NS(=O)(=O)c2ccc3c(c2)CNCC3)C(C(=O)O)C1` (stereo partly drawn) [Example 15, 4-Methyl-1-[N-(1,2,3,4-tetrahydroisoquinoline-7-sulphonyl)-3-amidino-(S)-phenylalanvl]-1,2,3,6-tetrahydropyridine-2(R,S)-carboxylic acid dihydrochloride] were, in that order, 14000 nM, 320 nM and 78 nM.
